# Measured values from US7151180B2, “Potassium channel modulators” (Bristol-Myers Squibb Company, priority 2003, dated 2006).
# Tests used:
# [1] = system: cloned mammalian (mSlo or hSlo) BK channels expressed in Xenopus oocytes; experiment: Assay for BK channel openers: two-electrode voltage clamp of BK-mediated outward current in Xenopus oocytes; type: cell-based; settings: at 20 μM; percent increase over BK current in controls; voltage step to +140 mV; 5–10 oocytes
# Experimental: The ability of the compounds of the invention to open BK channels and increase whole-cell outward (K^+) BK-mediated currents was assessed under voltage-clamp conditions by determining their ability to increase cloned mammalian (mSlo or hSlo) BK-mediated outward current heterologously expressed in Xenopus oocytes [Butler, A., et al., Science 1993, 261, 221–224; Dworetzky, S. I., et al., Mol. Brain Res. 1994, 27, 189–193; Gribkoff, V. K., et al., Mol. Phannacol. 1996, 50, 206–217]. The two BK constructs employed represent nearly structurally identical homologous proteins, and have proven to be pharmacologically indistinguishable in our tests. To isolate BK current from native (background, non-BK) current, the specific and potent BK channel-blocking toxin iberiotoxin (IBTX) [Galvez, A., et al., J. Biol. Chem. 1990, 265, 11083–11090] was employed at a supramaximal concentration, e.g., 50–100 nanomolar (“nM”). The relative contribution of BK channel-mediated current to total outward current was determined by subtraction of the current remaining in the presence of IBTX (non-BK current) from the current profiles obtained in all other experimental conditions (control, drug, and wash) [Gribkoff, V. K. et al., Mol. Pharmacol. 1996, 50, 206–217]. […] All compounds were tested in 5–10 oocytes and are reported at the indicated concentration of 20 micromolar (“μM”) (or as otherwise indicated); the effect of the selected compounds of the invention on BK current was expressed as the percent of control IBTX-sensitive current at a single transmembrane voltage (+140 mV) and is listed in Table 1.Recordings were accomplished using standard two-electrode voltage clamp techniques [Stuhmer, W., et al., Methods in Enzymology, 1992, 207, 319–339]; voltage-clamp protocols consisted of 500–750 milliseconds (“ms”) duration step depolarizations, from a holding potential of −60 mV, to a final voltage up to +140 mV in 20 mV steps. The experimental media (modified Barth's solution) consisted of millimolar (“mM”): NaCl (88), NaHCO3 (2.4), KCl (1.0), HEPES (10), MgSO4 (0.82), Ca(NO3)2 (0.33), CaCl2 (0.41); pH 7.5.
# [2] = system: rat small intestine tissue; experiment: Relaxation of rat small intestine (ileum) strips (nifedipine-sensitive force); settings: integral of nifedipine-sensitive force, 30 min post-compound
# From the text: The ability of the compounds of the invention to relax rat small intestine tissue as a model for the treatment of irritable bowel syndrome is described as follows. Male rats (Harlan, Sprague Dawley, 250–350 g) were sacrificed by decapitation. A portion of small intestine (ileum) was removed and the attached connective tissues and intestinal contents removed. The ileum was cut into segments of ≦1 cm in length. The segments were mounted longitudinally between fixed hooks in organ baths containing warm (37° C.) physiological salt solution (composition in mM: NaCl 118.4,KCl 4.7,KH2PO4 1.2,MgSO4 1.2,CaCl2 1.8,Glucose 10.1, NaHCO3 25; gassed with 95% O2/5% CO2, pH 7.4). A stable tension of ˜1.5 g was maintained in the tissue segments during the equilibration period of 45 minutes. Changes in muscle tension were measured with isometric force transducers (Grass, FT-03C) and recorded using AcqKnowledge data acquisition system (AcqKnowledge for MP100WS, Biopac Systems Inc., Goleta, Calif.). Compound or vehicle was added in the baths for 30 minutes. “Zero” active force was established at the end of the experiment using nifedipine (20 μM). The effects of compounds or vehicle on force was determined by measuring the integral of nifedipine-sensitive force (including resting tone and spontaneous contractions) pre- and 30 min post-compound (or vehicle) addition. Results are expressed as the percentage inhibition of force. DMSO vehicle inhibited force (integral) by −0.6±3.0% (n=25).
# [3] = system: rabbit corpus cavernosum tissue; experiment: Relaxation of rabbit corpus cavernosum strips (phenylephrine-induced force); settings: Oryctolagus cuniculus, inhibition of phenylephrine (3 μM)-induced force compared to vehicle control, read-out: % Inhibition of force (RCC strips)
# Experimental: The ability of the compounds of the invention to relax rabbit corpus cavernosum tissue as a model for the treatment of erectile dysfunction is described as follows. New Zealand white rabbits (3.4–3.7 kg) were euthanized by sodium pentobarbital (100 mg/kg) overdose. The penis from each animal was rapidly removed and immersed in a cold oxygenated modified Krebs Henseleit bicarbonate buffer. The penis' outer tunica was removed and the corpus cavernosum smooth muscle obtained and cut into strips approximately 3–5 mm long. The strips were suspended in tissue baths containing physiological salt solution (see above), and allowed to equilibrate for at least one hour under resting tension of 1.0 gram. Isometric force was measured as described above. Tissue strips were stimulated with the α-agonist phenylephrine (3 μM) and allowed to reach a steady level of force prior to the addition of test compounds. The results are expressed as the percentage inhibition of phenylephrine-induced force as compared to vehicle control.
SMILES,% MaxiK opening [1] [%],% Inhibition of force (RSI strips) [2] [%],inhibition [3] [%],melting point [°C]
"Nc1ccc(Sc2c(-c3cc(Cl)ccc3O)c3cc(C(F)(F)F)ccc3[nH]c2=O)cc1 [Example 1, 3-[(4-Aminophenyl)thio]-4-(5-chloro-2-hydroxyphenyl)-6-(trifluoromethyl)-2(1H)-quinolinone]",392,10,27,
"O=c1[nH]c2ccc(C(F)(F)F)cc2c(-c2cc(Cl)ccc2O)c1SCc1ccc(O)cc1 [Example 8, 4-(5-Chloro-2-hydroxyphenyl)-3-(4-hydroxybenzylsulfanyl)-6-trifluoromethyl-1H-quinolin-2-one]",227,,33,206 to 208
"O=c1[nH]c2ccc(C(F)(F)F)cc2c(-c2cc(Cl)ccc2O)c1Sc1ccc(O)cc1 [Example 6, 4-(5-Chloro-2-hydroxyphenyl)-3-(4-hydroxyphenylsulfanyl)-6-trifluoromethyl-1H-quinolin-2-one]",307,21,8,180 to 190
"O=c1[nH]c2ccc(C(F)(F)F)cc2c(-c2cc(Cl)ccc2O)c1Sc1ccncc1 [Example 4, 4-(5-Chloro-2-hydroxy-phenyl)-3-(pyridin-4-ylsulfanyl)-6-trifluoromethyl-1H-quinolin-2-one]",206,17,36,257 to 260
"O=c1[nH]c2ccc(C(F)(F)F)cc2c(-c2cc(Cl)ccc2O)c1Sc1ncccn1 [Example 3, 4-(5-Chloro-2-hydroxy-phenyl)-3-(pyrimidin-2-ylsulfanyl)-6-trifluoromethyl-1H-quinolin-2-one]",144,,,302 to 303
"Cn1cnnc1Sc1c(-c2cc(Cl)ccc2O)c2cc(C(F)(F)F)ccc2[nH]c1=O [Example 5, 4-(5-Chloro-2-hydroxy-phenyl)-3-(4-methyl-4H-[1,2,4]triazol-3-ylsulfanyl)-6-trifluoromethyl-4a,8a-dihydro-1H-quinolin-2-one]",167,,35,
"O=C(O)c1ccc(Sc2c(-c3cc(Cl)ccc3O)c3cc(C(F)(F)F)ccc3[nH]c2=O)cc1 [Example 10, 4-[4-(5-Chloro-2-hydroxy-phenyl)-2-oxo-6-trifluoromethyl-1,2-dihydro-quinolin-3-ylsulfanyl]-benzoic acid]",209,,29,
"COc1ccc(Cl)cc1-c1c(Sc2ccc(C(=O)O)cc2)c(=O)[nH]c2ccc(C(F)(F)F)cc12 [Example 11, 4-[4-(5-Chloro-2-methoxy-phenyl)-2-oxo-6-trifluoromethyl-1,2-dihydro-quinolin-3-ylsulfanyl]-benzoic acid]",177,,,
"Cn1c(=O)c(Sc2ccc(N)cc2)c(-c2cc(Cl)ccc2O)c2cc(C(F)(F)F)ccc21 [Example 2, 3-[(4-Aminophenyl)thio]-4-(5-chloro-2-hydroxyphenyl)-1-methyl-6-(trifluoromethyl)-2(1H)-quinolinone]",144,,7,
"O=c1[nH]c2ccc(C(F)(F)F)cc2c(-c2cc(Cl)ccc2O)c1Sc1ccccc1O [Example 9, 4-(5-Chloro-2-hydroxyphenyl)-3-(2-hydroxyphenylsulfanyl)-6-trifluoromethyl-1H-quinolin-2-one]",145,,,290 to 292
"Nc1nnc(Sc2c(-c3cc(Cl)ccc3O)c3cc(C(F)(F)F)ccc3[nH]c2=O)s1 [Example 7, 3-(5-Amino-[1,3,4]thiadiazol-2-ylsulfanyl)-4-(5-chloro-2-hydroxyphenyl)-6-trifluoromethyl-1H-quinolin-2-one]",237,40,45,260 to 270
